We go through 46 molecules from ChEMBL document CHEMBL3301361, “Experimental in vitro DMPK and physicochemical data on a set of publicly disclosed compounds”.

Values after ≈ are worked out from the molar mass of the structure shown.

The nature of data set [1]: physchem. To be noted: octan-1-ol/water, pH 7.4, LogD7.4.
The nature of the next data set: in vitro. As to conditions: human.
Data set [2] in a line: physchem. As to conditions: pH 7.4 buffer.

For the molecule `N#Cc1c(-c2ccccc2)nc(SCc2ccccc2)[nH]c1=O`, the pH-dependent lipophilicity (logD) – broadly, the decadic logarithm of the distribution of all forms, ionised or not, between an organic phase and buffer at a given pH – in the data set “physchem [1]” was determined as 1.56. Also, the microsomal CLint (commonly the rate of metabolic loss divided by the concentration) in the data set “in vitro” (microsomes) is 6 µL/min/mg.

`CCCCc1nc2c(N)nc3ccccc3c2n1Cc1ccccc1` registered a log distribution coefficient (logD) in the data set “physchem [1]” of 4.17. This molecule also returned a microsomal CLint in the data set “in vitro” (microsomes) of 6 µL/min/mg.

Molecule `CCCC1CCCCC(N)=N1` (configuration not stated) displayed a logD in the data set “physchem [1]” of 1.1. Further, the microsomal CLint in the data set “in vitro” (liver microsomes) is below 3 µL/min/mg.

With `Nc1nnc(-c2ccccc2)s1`, the log distribution coefficient (logD) in the data set “physchem [1]” was 1.8. Moreover, in the data set “in vitro” (liver microsomes), the intrinsic clearance (microsomal CLint) was found to be 3 µL/min/mg.

`CC(C)C[C@H](NC(=O)N1CCOCC1)C(=O)NCC#N`: the pH-dependent lipophilicity (logD) in the data set “physchem [1]” came out at 0.08. In addition, the microsomal CLint in “in vitro” (liver microsomes) is below 3 µL/min/mg.

As for `C(#Cc1n[nH]c2ccccc12)c1ccccc1`, the logD in the data set “physchem [1]” is 4.31. In the data set “in vitro” (microsomes), the intrinsic metabolic clearance (microsomal CLint) was determined as 35 µL/min/mg.

Turning to `CC1CN(S(=O)(=O)c2ccccc2)CCN1Cc1cc(Cl)ccc1OCC(=O)O` (configuration not stated), the pH-dependent lipophilicity (logD) in “physchem [1]” was 0.69. Further, the microsomal CLint in the data set “in vitro” (microsomes) was below 3 µL/min/mg.

In the data set “physchem [1]”, `C[C@H]1CN(Cc2cc(Cl)ccc2OC(C)(C)C(=O)O)CCN1S(=O)(=O)c1ccccc1` displayed a logD of 0.54. This molecule came in with a microsomal CLint in “in vitro” (microsomes) below 3 µL/min/mg.

Turning to `Cc1ccc(C#N)cc1-c1cc(C(F)(F)F)ccc1OCC(=O)O`, the pH-dependent lipophilicity (logD) in “physchem [1]” came to 0.15. Also, the microsomal CLint in “in vitro” (microsomes) is below 3 µL/min/mg.

With `O=C(NCC1CCCCC1)c1cc(-n2ncc(=O)[nH]c2=O)ccc1Cl`, the log distribution coefficient (logD) in “physchem [1]” came to 1.26. The molecule also returned a microsomal CLint in “in vitro” (microsomes) of 8.5 µL/min/mg.

In turn, `N#Cc1cc(Cl)ccc1O[C@H](CCN)c1ccccc1` showed a pH-dependent lipophilicity (logD) in the data set “physchem [1]” of 0.91. Also, in “in vitro” (liver microsomes), the microsomal CLint was below 3 µL/min/mg.

For the molecule `CN(C(=O)Cc1ccc(F)cc1)C1CCN(CCC(c2ccccc2)c2ccccc2)CC1`, the solubility (thermodynamic) – broadly, the concentration in solution at equilibrium with solid – in the data set “physchem [2]” was 129 µM (≈ 57.3 µg/mL). The same molecule gave a microsomal CLint in “in vitro” (liver microsomes) below 3 µL/min/mg.

With `CCc1ccc(CCNCCCSCCNC[C@H](O)c2ccc(O)c3[nH]c(=O)sc23)cc1`, the pH-dependent lipophilicity (logD) in the data set “physchem [1]” amounted to 0.86. The microsomal CLint in “in vitro” (liver microsomes) stood at 68 µL/min/mg.

For `O=c1[nH]c2c(O)ccc([C@@H](O)CNCCCSCCNCCc3cccc(Cl)c3)c2s1`, in the data set “physchem [1]”, the log distribution coefficient (logD) was found to be 1.06. This molecule also showed a microsomal CLint in “in vitro” (liver microsomes) of 20 µL/min/mg.

Molecule `O=c1[nH]c2c(O)ccc([C@@H](O)CNCCCSCCNCCc3cccc(Cl)c3Cl)c2s1` came in with a logD in the data set “physchem [1]” of 1.74. In “in vitro” (liver microsomes), the microsomal CLint is 35 µL/min/mg.

`CSc1nccc(Nc2cc(NC(=O)c3cc(F)cc(N4CCOCC4)c3)ccc2C)n1` displayed a thermodynamic solubility in the data set “physchem [2]” of 0.7 µM (≈ 0.317 µg/mL). Besides, the intrinsic metabolic clearance (microsomal CLint) in “in vitro” (liver microsomes) came out at 83 µL/min/mg.

The molecule `Cc1c(Sc2ccc(Cl)cc2)c2ccc(S(C)(=O)=O)cc2n1CC(=O)O` had a logD in the data set “physchem [1]” of 0.79. For the same molecule, the microsomal CLint in the data set “in vitro” (microsomes) is below 3 µL/min/mg.

Regarding `CNC(=O)c1cccc2c1c(Sc1ccc(Cl)cc1)c(C)n2CC(=O)O`, the pH-dependent lipophilicity (logD) in “physchem [1]” is -0.89. This molecule also registered a microsomal CLint in the data set “in vitro” (liver microsomes) below 3 µL/min/mg.

Take `Cc1ccc2c(c1)c([S+]([O-])c1ccc(Cl)cc1)c(C)n2CC(=O)O` (configuration not stated): the logD in the data set “physchem [1]” was found to be 0.05. In “in vitro” (liver microsomes), this molecule yielded a microsomal CLint of 3 µL/min/mg.

Turning to `COc1ccccc1CNCc1ccc(CCNC[C@H](O)c2ccc(O)c3[nH]c(=O)sc23)cc1`, in the data set “physchem [1]”, the logD worked out at 0.15. Moreover, the microsomal CLint in “in vitro” (microsomes) came to 22 µL/min/mg.

For `COc1ccccc1CNCCc1cccc(CCNC[C@H](O)c2ccc(O)c3[nH]c(=O)sc23)c1`, the logD in “physchem [1]” is 0.91. The microsomal CLint in the data set “in vitro” (liver microsomes) came out at 56 µL/min/mg.

On to `CCN(C(=O)Cc1ccc(S(C)(=O)=O)cc1)C1CCN(CC[C@@H](c2ccccc2)N2CCN(S(=O)(=O)C(F)(F)F)CC2)CC1`, for which the thermodynamic solubility in the data set “physchem [2]” was 288 µM (≈ 190 µg/mL). Further, in the data set “in vitro” (liver microsomes), the microsomal CLint stood at 18 µL/min/mg.

`O=C(O)CSCC(=O)Nc1nc(-c2ccc(F)cc2)cs1` registered a logD in the data set “physchem [1]” of -0.2. In “in vitro” (liver microsomes), the microsomal CLint is below 3 µL/min/mg.

In the case of `Cc1ccc(C(=O)NC(C)C)cc1-n1cnc2ccc(N3CCN(C)CC3)cc2c1=O`, in the data set “physchem [1]”, the logD is 1.56. Besides, the microsomal CLint in “in vitro” (liver microsomes) is below 3 µL/min/mg.

Consider `COc1cccc2c(-c3c(C)n(CC(=O)O)c4ccc(C)cc34)ccnc12`, for which the log distribution coefficient (logD) in the data set “physchem [1]” is 0.49. The intrinsic metabolic clearance (microsomal CLint) in “in vitro” (liver microsomes) was determined as 5 µL/min/mg.

The molecule `Cc1ccc2c(c1)c(-c1ccnc3c(C#N)cccc13)c(C)n2CC(=O)O` yielded a pH-dependent lipophilicity (logD) in “physchem [1]” of 0.52. In addition, in the data set “in vitro” (liver microsomes), the microsomal CLint is below 3 µL/min/mg.

Take `Cc1ccc(S(=O)(=O)NC(=O)N2CCC(N3CCC(Oc4ccc(Cl)cc4C)CC3)CC2)cc1`: the logD in “physchem [1]” is 1.79. In addition, the microsomal CLint in “in vitro” (liver microsomes) came to 6 µL/min/mg.

`Cc1ccc(S(=O)(=O)NC(=O)N2CCC(N3CCC(Oc4ccc(F)c(F)c4)CC3)CC2)cc1` had a logD in “physchem [1]” of 0.75. The molecule further gave a microsomal CLint in “in vitro” (liver microsomes) below 3 µL/min/mg.

On to `O=C(NC[C@@H](O)CN1CCC(Oc2ccc(Cl)c(Cl)c2)CC1)n1c(=O)[nH]c2ccccc21`, for which the logD in “physchem [1]” was found to be 4.46. For the same molecule, the microsomal CLint in the data set “in vitro” (microsomes) is below 3 µL/min/mg.

With `O=C(NCC12CC3CC(CC(C3)C1)C2)c1ccccc1Cl`, the pH-dependent lipophilicity (logD) in the data set “physchem [1]” came out at 4.05. The same molecule registered a microsomal CLint in the data set “in vitro” (liver microsomes) of 69 µL/min/mg.

With `CC1CN(C(=O)c2cc3ccccc3[nH]2)CCN1` (configuration not stated), the logD in “physchem [1]” was determined as 0.94. The same molecule registered a microsomal CLint in “in vitro” (liver microsomes) of 8 µL/min/mg.

For `CCO/N=C(\c1ccc(Br)cc1)C1CCN(C2(C)CCN(C(=O)c3c(Cl)cncc3Cl)CC2)CC1`, the logD in “physchem [1]” worked out at 4. Further, in “in vitro” (liver microsomes), the microsomal CLint amounted to 4 µL/min/mg.

As for `CCN(C(=O)Cc1ccc([N+](=O)[O-])cc1)C1CCN(CCC(c2ccccc2)c2ccccc2)CC1`, in the data set “physchem [1]”, the pH-dependent lipophilicity (logD) is 4.1. This molecule also yielded an intrinsic metabolic clearance (microsomal CLint) in “in vitro” (liver microsomes) of 13 µL/min/mg.

Turning to `Cc1ccc2c(c1)c(-c1ccnc3ccc(C(F)(F)F)cc13)c(C)n2CC(=O)O`, the logD in “physchem [1]” stood at 1.78. Also, in the data set “in vitro” (liver microsomes), the intrinsic metabolic clearance (microsomal CLint) was found to be 23 µL/min/mg.

Take `Cc1nc(CSc2nc(N[C@H](C)CO)c3sc(N)nc3n2)cs1`: the logD in “physchem [1]” is 1.73. The molecule further showed a microsomal CLint in “in vitro” (microsomes) of 3 µL/min/mg.

With `COc1ccc(C)c(NC(=O)CC23CC4CC(CC(C4)C2)C3)c1`, the pH-dependent lipophilicity (logD) in the data set “physchem [1]” turned out to be 3.96. The intrinsic metabolic clearance (microsomal CLint) in the data set “in vitro” (liver microsomes) was above 150 µL/min/mg.

Take `CCO[C@@H]1OC(=O)C[C@@H]1NC(=O)[C@@H]1CCCN2C(=O)CC[C@H](NC(=O)c3nccc4ccccc34)C(=O)N12`: the log distribution coefficient (logD) in the data set “physchem [1]” stood at 1.16. The molecule also came in with a microsomal CLint in “in vitro” (liver microsomes) below 3 µL/min/mg.

With `COCCNCc1ccc(-c2cc(C(N)=O)c(NC(N)=O)s2)cc1`, the log distribution coefficient (logD) in “physchem [1]” amounted to 0.87. In “in vitro” (liver microsomes), this molecule had an intrinsic metabolic clearance (microsomal CLint) of 3 µL/min/mg.

Take `CN(C)CCCOc1ccc(-c2cc(C(N)=O)c(NC(N)=O)s2)cc1`: in “physchem [1]”, the logD worked out at 0.64. Further, the intrinsic metabolic clearance (microsomal CLint) in the data set “in vitro” (liver microsomes) came out at 6 µL/min/mg.

Regarding `O=C(CC12CC3CC(CC(C3)C1)C2)Nc1ccc2[nH]ncc2c1`, in “physchem [1]”, the logD amounted to 4.03. Moreover, the microsomal CLint in the data set “in vitro” (liver microsomes) was determined as 21 µL/min/mg.

For `NC1CCN(c2nccc(C(=O)NCC34CC5CC(CC(C5)C3)C4)c2Cl)CC1`, in the data set “physchem [1]”, the logD came to 1.19. In the data set “in vitro” (microsomes), this molecule returned a microsomal CLint of 41 µL/min/mg.

Turning to `Cc1ccc2nc(CCNCCCO)ccc2c1NC(=O)CC12CC3CC(CC(C3)C1)C2`, the pH-dependent lipophilicity (logD) in “physchem [1]” was 1.18. In addition, the microsomal CLint in the data set “in vitro” (liver microsomes) was found to be 33 µL/min/mg.

Molecule `N=C(N)c1cc2c(I)cccc2s1` returned a logD in the data set “physchem [1]” of 0.74. In “in vitro” (liver microsomes), the microsomal CLint was determined as 4 µL/min/mg.

On to `Cc1cc2c(C(=O)NC[C@H](C)c3ccccc3)c(O)c(O)cc2c(O)c1-c1c(C)cc2c(C(=O)NC[C@H](C)c3ccccc3)c(O)c(O)cc2c1O` [1,1',6,6',7,7'-HEXAHYDROXY-3,3'-DIMETHYL-N5-((R)-2-PHENYLPROPYL)-N5'-((R)-2-PHENYLPROPYL)-2,2'-BINAPHTHYL-5,5'-DICARBOXAMIDE (ATROPISOMERIC MIX)], for which the pH-dependent lipophilicity (logD) in the data set “physchem [1]” was determined as 3.48. In the data set “in vitro” (microsomes), this molecule registered a microsomal CLint of 34.7 µL/min/mg.

In turn, `Nc1ccc(S(=O)(=O)c2ccc(N)cc2)cc1` [DAPSONE] had a pH-dependent lipophilicity (logD) in the data set “physchem [1]” of 0.88. For the same molecule, the microsomal CLint in “in vitro” (microsomes) is below 3 µL/min/mg.

For the molecule `Cc1cccc(Nc2ccccc2C(=O)O)c1C` [MEFENAMIC ACID], the pH-dependent lipophilicity (logD) in the data set “physchem [1]” is 1.89. The intrinsic clearance (microsomal CLint) in the data set “in vitro” (microsomes) is 9 µL/min/mg.
